Here are results for 2 molecules from US9737582B2, “Method for improving memory of a subject using a composition comprising Cistanche and Ginkgo extracts” (Access Business Group International LLC, priority 2014, dated 2017).

What all share (type): cell-based, murine
For assay [1], the system named is hippocampal cultures. As to the kind of experiment: Chronic treatment of hippocampal cultures on MEA neurochips, spontaneous network activity. Particulars: chronic treatment 4-28 days in vitro; 30 μg/ml Cistanche, 300 nM Donepezil. The text has this:
Microelectrode array (MEA) neurochips were utilized to analyze various examples. Specifically, use of MEA neurochips enabled stimulation and recording of bioelectricity with high spatial and temporal resolution, to glean neuroactivity of the Cistanche and Ginkgo extracts, alone and in combination, and with neuronal growth factors.
MEA neurochips are available from NeuroProof GmbH of Rostock, Germany. The electrophysiological properties of compounds can be evaluated using their ability for induction of activity changes in neuronal networks grown on MEA neurochips. Routine monitoring of internal dynamics of mammalian neuronal networks is possible. […]
FIG. 8 illustrates examples of the study to assess chronic effects of Cistanche tubulosa extract on maturation of a neuronal network. […] At 28 days after repeated dose chronic treatment, spontaneous activity was measured, followed by recording of activity to acute NGF concentration-response curve. […]
Multichannel recording delivered single neuron spike data and spike identification and separation were accomplished with a template-matching algorithm in real time, to allow the extracellular recording of action potentials from 256 neurons simultaneously. The action potentials or “spikes” were recorded in spike trains and clustered in bursts, which can be quantitatively described via direct spike train analysis. […]

In assay [2] the test system is hippocampal cultures. As to the kind of experiment: Acute NGF concentration-response on chronically treated hippocampal cultures, MEA neurochips. To be noted: acute mNGF 3 ng/ml to 1 μg/ml. As to the method: FIG. 8 illustrates examples of the study to assess chronic effects of Cistanche tubulosa extract on maturation of a neuronal network. Hippocampal cultures on MEA neurochips were treated with 30 μg/ml Cistanche, 300 nM Donepezil, or a dimethyl sulfoxide (“DMSO”) vehicle control. At 28 days after repeated dose chronic treatment, spontaneous activity was measured, followed by recording of activity to acute NGF concentration-response curve.
FIG. 19A is a first portion of a heat map and FIG. 19B is a second portion of the heat map. The heat map illustrates concentration dependent effects of acute mouse nerve growth factor (“mNGF”) on network activity of chronically treated hippocampal cultures with the mixtures or components described above for FIG. 18.
The heat map illustrates significant changes on the 60 most representative parameters for each mNGF concentration, from 3 ng/ml to 1 μg/ml. The color code changes in activity parameters according to the percent changes (100:no change), with yellow/red=an increase and green/blue=a decrease.

In assay [3] the test system is hippocampal network morphology. As to the kind of experiment: Immuno-histochemical analysis of recorded cultures, semi-automatic quantitative image analysis. To be noted: chronic 4-28 days in vitro; 30 μg/ml Cistanche, 300 nM Donepezil. The text has this: FIG. 5A is an example image associated with semi-automatic quantification of neurons/image, neurites/image, synapses/image, and synapse/neurite ratio. The image depicts color-merge of synapse (green), neurites (red), nuclei (blue), bar=50 μm.
FIG. 5B is an example image corresponding to synapse channel: color-inverted and analyzed for synapse particles (red labeled after automatic threshold, particle separation and size filter).
FIG. 9 illustrates examples of the study directed at immuno-histochemical analysis. Recorded cultures are further analyzed by immunocytochemistry, fluorescence microscopy and semi-automatic quantitative image analysis. Images are quantified per image for: cell number, neuronal number, neurite number, synapse number, % neurons, neurites per neuron, and synapses per neuron. […]
Recorded cultures were further analyzed by immunocytochemistry, fluorescent microscopy and quantitative image analysis for morphological findings. Semi-automatic quantification (mean±SEM, student's t-test: *p≦0.05; n=3 with 10-20 images each.)
FIG. 21 are images associated with semi-automatic quantification of total cells/field, percentage of neurons, neuritic density, and synaptic number/field. […] The rightmost images correspond to synapse channel: color inverted and analyzed for synapse particles.

For the molecule `COc1cc2c(cc1OC)C(=O)C(CC1CCN(Cc3ccccc3)CC1)C2` (stereo not shown) [Donepezil], the spontaneous network activity entry in the assay with hippocampal cultures [1] was “enhanced the spontaneous network activity”. Besides, in the assay on hippocampal cultures [2] (chronic 4-28 days in vitro, 30 μg/ml Cistanche, 300 nM Donepezil, mixture at 10 and 30 μg/ml), the “effect of chronic treatment on the acute NGF response” value is “compensated the inhibitory acute NGF response”. Moreover, the global synapse number result in assay [3] is “increase”.

B1: NGF: mouse nerve growth factor applied acutely to cultures (protein, UniProt P01139 122-241, looked up)
Beta-nerve growth factor: SSTHPVFHMGEFSVCDSVSVWVGDKTTATDIKGKEVTVLAEVNINNSVFRQYFFETKCRASNPVESGCRGIDSKHWNSYCTTTHTFVKALTTDEKQAAWRFIRIDTACVCVLSRKATRRG
modifications: Beta-nerve growth factor
notes: mouse nerve growth factor applied acutely to cultures
As to B1, the “effect of acute NGF alone on general activity” value in the assay with hippocampal cultures [2] (vehicle-treated cultures) is given as “inhibition of general activity”.
